Reference: ChEMBL document CHEMBL2028040, “Malaria Box”

Legend:
[1] = system: Plasmodium falciparum; assay: MMV: Inhibition of Plasmodium falciparum 3D7 at 5uM compound concentration.; format: functional
[2] = system: Trypanosoma cruzi; assay: MMV: Inhibition of Trypanosoma cruzi (Tulahuen C4 LacZ) (Chagas in vitro).; format: functional, organism-based
[3] = system: Trypanosoma brucei brucei; assay: MMV: Inhibition of Trypanosoma brucei brucei (Squib 427) (HAT in vitro).; format: functional, organism-based
[4] = system: Trypanosoma brucei rhodesiense; assay: MMV: Inhibition of Trypanosoma brucei rhodesiense (STIB 900) (HAT in vitro).; format: functional, organism-based
[5] = system: Leishmania infantum; assay: MMV: Inhibition of Leishmania infantum (MHOM/MA/BE/67) in vitro.; format: functional, organism-based
[6] = MMV: Cytotoxicity against human fibroblasts (MRC-5) cells.; settings: MRC-5 cells (human fibroblasts)

SMILES	inhibition at 5 µM [1]	IC50 [2]	IC50 [3]	IC50 [4]	IC50 [5]	IC50 [6]
O=C(Nc1ccccc1O)c1ccc(Oc2cccc(C(=O)Nc3ccccc3O)c2)cc1	91%	> 32 µM	> 32 µM	> 32 µM	> 32 µM	> 32 µM
O=C(Nc1ccc(Br)cc1)Nc1cccc(Cl)c1	94%	5.21 µM	4 µM	3.09 µM	10.2 µM	> 32 µM
COc1ccc(C(=O)Nc2ccc3nc(N4CCCCC4)cc(C)c3c2)cc1OC	–	14.6 µM	16.2 µM	10.9 µM	16.2 µM	16.4 µM
COc1cc2cc(C(=O)Nc3ccccc3)c(N)nc2cc1OC	–	> 32 µM	> 32 µM	> 32 µM	> 32 µM	> 32 µM
CC(=O)c1ccc(NC(=O)CSc2nc(-c3ccccc3Cl)ns2)cc1	–	> 32 µM	> 32 µM	> 32 µM	> 32 µM	> 32 µM
CCC(=O)Nc1nnc(Cc2ccc(OC)c(OC)c2)s1	47%	> 32 µM	> 32 µM	> 32 µM	> 32 µM	> 32 µM
FC(F)(F)c1cccc(Nc2nc(-c3ccccc3)nc3ncccc23)c1	74%	15.3 µM	> 32 µM	25.3 µM	> 32 µM	> 32 µM
CCN1CCN(c2cc(C)c3cc(NC(=O)c4ccc(OC)c(OC)c4)ccc3n2)CC1	–	6.59 µM	4.78 µM	3.22 µM	6.35 µM	5.46 µM
COc1ccc(-c2cn3c(C(=O)Nc4ccccc4Cl)c(-c4ccccc4)c4c3n2CCCC4)cc1	80%	15 µM	16.5 µM	5 µM	16 µM	> 32 µM
Cn1c(C(=O)c2cccc3ccccc23)nc2ccccc21	89%	> 32 µM	> 32 µM	29.2 µM	16 µM	> 32 µM
Oc1ccc2ccccc2c1CNc1nc2ccccc2[nH]1	83%	> 32 µM	16.1 µM	8.65 µM	> 32 µM	> 32 µM
Oc1ccc(Cl)cc1CNc1nc2ccccc2[nH]1	95%	16.1 µM	15.6 µM	16 µM	16 µM	15.9 µM
COc1cccc(C(=O)Nc2ccc(-c3nc4ccccc4[nH]3)cc2)c1	83%	> 32 µM	> 32 µM	> 32 µM	16.2 µM	> 32 µM
COc1ccc(C(=O)Nc2ccc(Cl)cc2C(=O)Nc2ccncc2)cc1	93%	> 32 µM	> 32 µM	> 32 µM	> 32 µM	> 32 µM
O=C(Nc1ccc(-c2nc3cc(NC(=O)c4ccc(Cl)cc4)ccc3[nH]2)cc1)c1ccc(Cl)cc1	–	> 32 µM	> 32 µM	> 32 µM	> 32 µM	> 32 µM
CCOc1cccc(C(=O)Nc2ccc(-c3nc4ccccc4[nH]3)cc2)c1	–	> 32 µM	> 32 µM	> 32 µM	16.2 µM	> 32 µM
CCOC(=O)c1cnc2ccc(OC)cc2c1Nc1ccc(N2CCN(C)CC2)cc1	–	4.13 µM	32 µM	3.82 µM	> 32 µM	13.9 µM
COc1ccc(C(=O)C(CCC(CNC(C)(C)C)C(=O)c2ccc(OC)cc2)CNC(C)(C)C)cc1 (stereo not drawn)	85%	4.15 µM	1.02 µM	1.65 µM	0.846 µM	10.3 µM
Cc1c(C)n(Cc2ccc(F)cc2)c2ccc(C(=O)NCc3ccco3)cc12	52%	> 32 µM	11 µM	15.4 µM	> 32 µM	> 32 µM
CCN(CC)c1ccc(NC(=O)c2cccs2)cc1	88%	> 32 µM	> 32 µM	> 32 µM	> 32 µM	> 32 µM
CCOc1ccccc1NC(=O)CN1CCN(C(=O)c2ccco2)CC1	83%	> 32 µM	> 32 µM	> 32 µM	> 32 µM	> 32 µM
CCN(CC)CCCNc1ccnc2cc3ccccc3cc12	90%	> 32 µM	16.5 µM	16.2 µM	> 32 µM	> 32 µM
COc1ccc(-c2nonc2NC(=O)c2cccc(Cl)c2)cc1OC	–	> 32 µM	> 32 µM	> 32 µM	> 32 µM	> 32 µM
CC(C)(C)C(=O)Nc1ccc(C(=O)Nc2cccc(-c3nc4ccccc4[nH]3)c2)cc1	91%	11.8 µM	16.4 µM	3.14 µM	> 32 µM	17.9 µM

SMILES	inhibition at 5 µM [1]	IC50 [2]	IC50 [3]	IC50 [4]	IC50 [5]	IC50 [6]
COc1ccc(-c2nonc2NC(=O)c2cccc(C)c2)cc1OC	95%	> 32 µM	> 32 µM	> 32 µM	> 32 µM	> 32 µM
Cc1ccc(-c2nc3ccccc3o2)cc1NCc1cc(Cc2ccccc2)ccc1O	64%	> 32 µM	> 32 µM	> 32 µM	16.2 µM	> 32 µM
O=C1CC(O)(C(F)(F)C(F)(F)F)Oc2ccccc21 (stereo not drawn)	95%	16.3 µM	> 32 µM	30.3 µM	> 32 µM	18.1 µM
O=C(Nc1cccc(C(F)(F)F)c1)c1cc(Cl)ccc1O	93%	0.343 µM	0.657 µM	0.7 µM	16.2 µM	0.241 µM
CC(C)(C)c1ccc(C(=O)Nc2nc3ccccc3s2)cc1	81%	> 32 µM	> 32 µM	> 32 µM	> 32 µM	> 32 µM
CCOc1cccc2sc(N(Cc3cccnc3)C(=O)C3CCCCC3)nc12	94%	0.165 µM	27 µM	16 µM	19 µM	> 32 µM
COc1ccccc1CNC(=O)C1c2ccccc2C(=O)N(CC(C)C)C1c1cccs1 (stereo not drawn)	97%	> 32 µM	> 32 µM	19.7 µM	> 32 µM	> 32 µM
CCN(CC)c1cc(C)c2cc(NC(=O)c3cccc(OC)c3)ccc2n1	–	13.7 µM	14.3 µM	0.679 µM	16.2 µM	15.3 µM
COc1ccc(C(O)(CCC(C)C)C(CN2CCOCC2)c2ccc(Cl)cc2)cc1 (stereo not drawn)	97%	4.26 µM	3.85 µM	4 µM	4.76 µM	10.8 µM
Cc1ccc(NC(=O)Nc2cccc(Cl)c2)cc1F	52%	6.29 µM	5.81 µM	4.03 µM	> 32 µM	> 32 µM
Oc1c(CN2CCN(c3ccccc3F)CC2)cc(Br)c2cccnc12	91%	0.963 µM	1.15 µM	1.05 µM	> 32 µM	5.58 µM
Oc1c2c(nc3cc(-c4ccccc4)nn13)CCCC2	77%	> 32 µM	12.8 µM	8 µM	> 32 µM	> 32 µM
COc1ccc(C)c2sc(N(Cc3cccnc3)C(=O)c3ccc(C#N)cc3)nc12	91%	2.32 µM	14.6 µM	16 µM	> 32 µM	> 32 µM
CCCCCCC(O)(c1ccc(F)cc1)C(CN1CCOCC1)c1ccccc1 (stereo not drawn)	93%	4.78 µM	16.2 µM	12.5 µM	4.32 µM	> 32 µM
Cc1ccc(C)c(-c2csc(Nc3ccc(C)c(C)c3)n2)c1	94%	19.3 µM	> 32 µM	22.8 µM	> 32 µM	> 32 µM
CCOc1ccc(CCNC(=O)c2cccs2)cc1OCC	95%	> 32 µM	> 32 µM	> 32 µM	> 32 µM	> 32 µM
O=c1c2c([nH]c3ccccc13)CCCC2	82%	> 32 µM	> 32 µM	> 32 µM	> 32 µM	> 32 µM
CN(C)c1ccc(N=Cc2ccc(N3CCOCC3)cc2)cc1	96%	17 µM	13.3 µM	3.51 µM	10.1 µM	> 32 µM
CCCCOc1ccc(C(=O)Nc2cc(C)on2)cc1	73%	> 32 µM	> 32 µM	> 32 µM	> 32 µM	> 32 µM
CCOC(=O)c1cnc2ccc(OC)cc2c1NCc1ccccc1	87%	13 µM	14.9 µM	4.95 µM	10.1 µM	> 32 µM
CCN1CCN(c2c(C(=O)c3ccccc3)cnc3cc(OC)c(OC)cc23)CC1	59%	> 32 µM	> 32 µM	17.9 µM	> 32 µM	> 32 µM
CCOC(=O)c1c[nH]c2c(CC)cccc2c1=O	87%	> 32 µM	> 32 µM	> 32 µM	> 32 µM	> 32 µM
CCCCN(CCCC)S(=O)(=O)c1ccc(NC(=O)c2ccco2)cc1	78%	> 32 µM	> 32 µM	16.3 µM	> 32 µM	> 32 µM
